Test results from ChEMBL document CHEMBL1201862, “PubChem BioAssay data set” (2004).
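Results reflect a 48-hour exposure of cells in 96-well plates to compound at five concentrations. Here, GI50 denotes the concentration required for 50% inhibition of growth.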 Active and inactive are the calls of the source. Rule as the data show it: active = GI50 up to about 1.1 µM and inactive = higher.

Assays:
Experiment in all cases: DTP human tumour cell line panel, 48 h
[1] = tested on: SNB-19
[2] = tested on: BT-549
[3] = tested on: PC-3
[4] = tested on: T47D
[5] = tested on: SNB-75
[6] = tested on: MCF7
[7] = tested on: MDA-MB-435
[8] = tested on: NCI-H460
[9] = tested on: UACC-257
[10] = tested on: COLO 205
[11] = tested on: SN12C
[12] = tested on: IGROV-1
[13] = tested on: Hs-578T
[14] = tested on: CAKI-1
[15] = tested on: M14
[16] = tested on: OVCAR-5
[17] = tested on: SK-OV-3
[18] = tested on: HL-60
[19] = tested on: SR
[20] = tested on: RPMI-8226

Measured: GI50

O=C(OCc1ccccc1CN1CCOCC1)c1cccc(Br)c1
inactive: [1] 93.1 µM | [2] 52.6 µM | [3] 37.2 µM | [4] 18.7 µM | [5] 31.2 µM | [6] 37 µM | [7] > 100 µM | [8] 83.8 µM | [9] 24.6 µM | [10] 39.4 µM | [11] 39.3 µM | [12] 19.7 µM | [13] 29.9 µM | [14] 40.2 µM | [15] 36.9 µM | [16] 36.3 µM | [17] > 100 µM

COc1c2c(cc3c1C(=O)c1c(O)cccc1C3=O)CC(O)CC2 (stereo not drawn)
inactive: [1] 19.7 µM | [2] 19.5 µM | [3] 67.9 µM | [4] 7.18 µM | [5] 34.8 µM | [6] > 100 µM | [7] > 100 µM | [18] > 100 µM | [8] > 100 µM | [9] > 100 µM | [10] > 100 µM | [11] > 100 µM | [12] 85.5 µM | [13] 26.7 µM | [14] > 100 µM | [15] 32 µM | [16] > 100 µM | [17] 21.5 µM

Cc1cc(O)c(C(C)C)cc1NC(=O)Nc1cccc2ccccc12
inactive: [1] 11.8 µM | [2] 17.2 µM | [3] 13.7 µM | [4] 13.2 µM | [7] 15.9 µM | [18] 23.8 µM | [8] 16.5 µM | [9] 17.5 µM | [19] 26.6 µM | [11] 16.5 µM | [12] 14.3 µM | [13] 13.4 µM | [14] 16.2 µM | [15] 18 µM | [16] 17.8 µM

NNC(=S)N1CCN(C(=S)NN)CC1
inactive: [1] > 100 µM | [2] > 100 µM | [3] > 100 µM | [4] > 100 µM | [5] > 100 µM | [7] > 100 µM | [18] 32.4 µM | [20] > 100 µM | [8] > 100 µM | [9] > 100 µM | [19] > 100 µM | [10] 65.8 µM | [11] > 100 µM | [12] 43.4 µM | [13] > 100 µM | [14] > 100 µM | [15] 13.7 µM | [16] > 100 µM | [17] > 100 µM

Cc1cc2cc3ccccc3cc2c(=O)[nH]1
inactive: [1] > 10 µM | [2] > 10 µM | [3] > 10 µM | [5] > 10 µM | [6] > 10 µM | [7] > 10 µM | [18] > 10 µM | [8] > 10 µM | [9] > 10 µM | [19] > 10 µM | [12] > 10 µM | [13] > 10 µM | [15] > 10 µM | [16] > 10 µM | [17] > 10 µM

C[C@@H]1CC[C@]2(C(=O)O)CC[C@]3(C)C(=CC[C@@H]4[C@@]5(C)CC[C@H](O)C(C)(C)[C@@H]5CC[C@]43C)[C@@H]2[C@]1(C)O [POMOLIC ACID]
inactive: [1] 15.7 µM | [2] 14.4 µM | [4] 16.4 µM | [5] 13.5 µM | [6] 20 µM | [7] 15.5 µM | [18] 4.35 µM | [20] 16.3 µM | [8] 5.41 µM | [9] 5.42 µM | [19] 13.9 µM | [10] 16.4 µM | [11] 13.6 µM | [12] 16.5 µM | [13] 3.52 µM | [14] 14 µM | [15] 2.98 µM | [16] 17.7 µM | [17] 17.9 µM
